Data published in patent publication US20050182084A1, “Method for treating erectile dysfunction” (FUJISAWA PHARMACEUTICAL CO., LTD., priority 2004, published 2005).

Tested on: rat cavernous nerve injury model
Test: recovery of erectile function in rat cavernous nerve injury model (intracavernous pressure)
Format: in vivo
Description: Effect of the compound (Ia) on erectile dysfunction was confirmed by a rat cavernous nerve injury model.
• (1) The recovery of erectile function after cavernous nerve injury was basically assessed in a similar manner to that of BJU International 92, 470-475 (2003). • (2) The compound (Ia), in a form of the solution which was prepared in a similar manner to that of Example 1 mentioned above, or its placebo was given to rats, from 1 day after surgery to 1 day before harvesting for 8 weeks, subcutaneously after being diluted with a suitable amount of HCO-60/EtOH in physiological saline.

## CO[C@H]1C[C@@H](C)C/C(C)=C/[C@@H](CC(C)=O)C(=O)C[C@H](O)[C@@H](C)[C@@H](/C(C)=C/[C@@H]2CC[C@@H](O)[C@H](OC)C2)OC(=O)[C@@H]2CCCCN2C(=O)C(=O)[C@]2(O)O[C@H]1[C@@H](OC)C[C@H]2C [Compound (Ia)]
Rat cavernous nerve injury model, conclusion from Table 1
  effect on intracavernous pressure (in words): remarkable recovery effect on intracavernous pressure
rat, cavernous nerve injury, 1 mg/kg subcutaneously, from 1 day after surgery for 8 weeks, n = 7, **P < 0.01 v.s. vehicle-treated (Dunnett's post-test)
  Peak intracavernous pressure(cm H2O) mean ± S.E.: 97.4 ± 8.0** cm H2O
